From US20050203135A1, “Antagonists for treatment of CD/11CD18 adhesion receptor mediated disorders” (Genentech, Inc., priority 1998, published 2005)

Legend:
human LFA-1:ICAM-1 = molecular target: T1, human LFA-1:ICAM-1 (Homo sapiens, UniProt P05107+P20701); experiment: human LFA-1:ICAM-1 receptor binding assay (format not stated)
T1 construct: containing the full-length cDNAs for the aL (CD11a) and b2 (CD18) subunits; made in house

[1] = test system: HuT 78 cell adhesion to 5dICAM-Ig; experiment: Human T-cell adhesion assay (cell attachment assay); format: cell-based; settings: HuT78
Experimental: The T-cell adhesion assay is performed using a human T-lymphoid cell line HuT 78. Goat anti-HuIgG(Fc) was diluted to 2 μg/ml in PBS and 96-well plates were coated with 50 μl/well @ 37° C. for 1 h. Plates were washed with PBS and blocked for 1 h @ room temperature with 1% BSA in PBS. 5 domain ICAM-Ig was diluted to 100 ng/ml in PBS and 50 μl/well was added to the plates O/N @ 4° C. HuT 78 cells were centrifuged at 100 g and the cell pellet was treated with 5 mM EDTA for 5′ at 37° C. in a 5% CO2 incubator. Cells were washed in 0.14M NaCl, 0.02M Hepes, 0.2% Glucose and 0.1 mM MnCl2 (assay buffer) and centrifuged. The cells were resuspended in assay buffer to 3.0×10^6 c/ml. Inhibitors were diluted in assay buffer to a 2× final concentration and pre-incubated with HuT 78 cells for 30′ at room temperature. 100 μl/well of cells and inhibitors were added to the plates and incubated at room temperature for 1 h. 100 μl/well PBS was added and the plates were sealed and centrifuged inverted at 100 g for 5′. Unattached cells were flicked out of the plate and excess PBS was blotted on a paper towel. […] The enzyme reaction was stopped with 90 μl/well 50 mM Glycine/5 mM EDTA and read on a platereader at […]. HUT 78 cell adhesion to 5dICAM-Ig is measured using the p-nitrophenyl n-acetyl-β-D-glucosaminide method of Landegren, U. (1984) J. Immunol. […]

T1 sequence (P20701 26-1170): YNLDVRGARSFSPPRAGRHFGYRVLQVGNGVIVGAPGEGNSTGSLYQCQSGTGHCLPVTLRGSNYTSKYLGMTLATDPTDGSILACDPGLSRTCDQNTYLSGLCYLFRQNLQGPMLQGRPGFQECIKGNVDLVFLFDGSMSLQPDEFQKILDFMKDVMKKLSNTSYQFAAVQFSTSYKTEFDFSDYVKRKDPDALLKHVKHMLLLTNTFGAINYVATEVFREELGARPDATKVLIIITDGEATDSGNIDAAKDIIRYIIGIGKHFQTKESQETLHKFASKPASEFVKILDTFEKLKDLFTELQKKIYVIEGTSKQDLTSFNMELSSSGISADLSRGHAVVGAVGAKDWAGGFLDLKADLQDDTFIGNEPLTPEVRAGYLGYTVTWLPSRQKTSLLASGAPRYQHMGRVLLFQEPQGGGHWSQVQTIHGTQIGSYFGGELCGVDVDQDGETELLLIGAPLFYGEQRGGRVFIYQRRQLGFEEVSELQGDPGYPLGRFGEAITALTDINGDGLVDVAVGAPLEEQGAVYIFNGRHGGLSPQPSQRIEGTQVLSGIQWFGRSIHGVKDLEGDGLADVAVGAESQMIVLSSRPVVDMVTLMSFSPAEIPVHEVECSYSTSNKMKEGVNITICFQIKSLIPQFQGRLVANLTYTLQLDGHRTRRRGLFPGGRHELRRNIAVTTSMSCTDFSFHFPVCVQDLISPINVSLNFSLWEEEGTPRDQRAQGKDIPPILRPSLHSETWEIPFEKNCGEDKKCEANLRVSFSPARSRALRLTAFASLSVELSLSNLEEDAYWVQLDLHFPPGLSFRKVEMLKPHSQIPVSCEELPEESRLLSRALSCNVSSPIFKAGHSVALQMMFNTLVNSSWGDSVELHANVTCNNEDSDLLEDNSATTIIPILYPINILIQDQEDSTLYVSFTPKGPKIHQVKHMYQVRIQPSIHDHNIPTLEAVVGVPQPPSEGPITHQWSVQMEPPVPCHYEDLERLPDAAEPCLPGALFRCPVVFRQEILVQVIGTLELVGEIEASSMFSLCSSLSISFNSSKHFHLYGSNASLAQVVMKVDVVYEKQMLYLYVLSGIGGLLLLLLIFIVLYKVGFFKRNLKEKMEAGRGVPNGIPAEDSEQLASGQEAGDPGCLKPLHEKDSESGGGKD
T1 sequence (P05107 23-769): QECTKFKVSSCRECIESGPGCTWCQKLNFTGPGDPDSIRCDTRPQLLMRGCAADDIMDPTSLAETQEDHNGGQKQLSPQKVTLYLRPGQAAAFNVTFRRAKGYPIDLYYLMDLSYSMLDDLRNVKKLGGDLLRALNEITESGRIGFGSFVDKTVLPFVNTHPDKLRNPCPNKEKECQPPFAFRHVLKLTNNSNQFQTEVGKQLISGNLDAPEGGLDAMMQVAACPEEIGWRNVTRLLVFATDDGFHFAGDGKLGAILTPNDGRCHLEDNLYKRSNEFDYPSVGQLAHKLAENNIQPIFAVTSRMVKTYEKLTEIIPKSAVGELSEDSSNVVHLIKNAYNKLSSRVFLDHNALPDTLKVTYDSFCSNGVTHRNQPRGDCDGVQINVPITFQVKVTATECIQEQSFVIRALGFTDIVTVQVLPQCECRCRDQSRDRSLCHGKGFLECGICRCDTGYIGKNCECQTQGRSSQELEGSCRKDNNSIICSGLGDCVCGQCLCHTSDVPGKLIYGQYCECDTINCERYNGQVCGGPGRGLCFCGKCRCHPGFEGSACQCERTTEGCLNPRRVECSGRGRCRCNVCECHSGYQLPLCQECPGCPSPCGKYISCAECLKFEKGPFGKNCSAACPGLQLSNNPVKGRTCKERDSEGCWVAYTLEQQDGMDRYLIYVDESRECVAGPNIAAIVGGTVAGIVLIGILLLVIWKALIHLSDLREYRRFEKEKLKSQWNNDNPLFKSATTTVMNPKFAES

- IC50 (human LFA-1:ICAM-1): ~2 µM
- IC50 [1]: ~10 µM
SMILES: O=C(N[C@@H](Cc1c[nH]c2ccccc12)C(=O)O)c1ccccc1Br [2-Bromobenzoyltryptophan]
